Results on 54 compounds are retold here after PubChem BioAssay AID720547 (The Scripps Research Institute Molecular Screening Center, 2013).

This assay has as its system HEK293 Gal4-VP16 luciferase reporter counterscreen, luminescence. The assay is described as follows: VP16-driven transactivation reporter suppression potency – cell-based, luminescence, HEK293, counter-screen for COUP-TFII inhibitor project, dose response (AID 720547).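 Also: potency for lowering the luciferase signal driven by Gal4-VP16.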

Molecules are shown by their SMILES. Calls of active or inactive are those of the source.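 The calls were made as follows: active = compound flagged as a likely artifact in this counterscreen, with IC50 of 10 µM or lower; inactive = IC50 above 10 µM.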 A value given as a limit tells only on which side of the number the result lay.

Turning to `O=C(NCCc1cn2ccccc2n1)c1cc(COc2ccc3ncccc3c2)on1`, the IC50 was 31.1 µM (inactive).
Turning to `CCCc1ccc(C(=O)O/N=C(\N)c2ccccn2)cc1`, the IC50 was 36.7 µM (inactive).
`Cn1nccc1C(=O)NC1CCCc2c1cnn2-c1ccccc1F` (centres undefined): the IC50 is > 85.4 µM (inactive).
Next, `CC[C@H]1CN2CCc3cc(OC)c(OC)cc3C2C[C@@H]1C[C@H]1NCCc2cc(OC)c(OC)cc21` (some centres undefined): > 85.4 µM (inactive); `Cc1ccc(S(=O)(=O)CC2CSc3nc4ccccc4n32)cc1` (centres undefined): > 85.4 µM (inactive).
Turning to `COc1ccc(CCNc2ncnc3sccc23)cc1OC`, the IC50 is > 85.4 µM (inactive).
For `O=C(c1cc(COc2cccc3cnccc23)on1)N1CCCC(CCCO)C1` (centres undefined), the IC50 is > 85.4 µM (inactive).
Next, `Cc1c(C(=O)NCc2ccc(C(C)C)cc2)sc(=O)n1Cc1ccc(S(=O)(=O)N(C)C)cc1`: > 85.4 µM (inactive); `CC(C)(C)c1ccc(C2CC2C(=O)N/N=C\c2ccc[nH]2)cc1` (centres undefined): > 85.4 µM (inactive); `Oc1ccc(Oc2ccc3c(C(F)(F)F)cc(C(F)(F)F)nc3n2)cc1`: 37 µM (inactive).
Next, `CCC(O)C1CCN(C(=O)c2cc(COc3ccc4ncccc4c3)on2)CC1` (centres undefined): > 85.4 µM (inactive).
Next, `CCN(CC)S(=O)(=O)c1cccc(NC(=O)CNc2cccc(S(=O)(=O)N3CCCC3)c2)c1`: > 85.4 µM (inactive); `Cc1cc(C)c(O)c(C(=O)CC2CC(=O)NC(=O)C2)c1`: > 85.4 µM (inactive); `Clc1ccc(-n2ncc3c(NCCN4CCOCC4)ncnc32)cc1`: > 85.4 µM (inactive).
In the case of `CCCCOC(=O)c1[nH]c2c(c1C)C(=O)CC(c1cc(OC)c(OC)c(OC)c1)C2` (centres undefined), the IC50 is > 85.4 µM (inactive).
Turning to `Cc1nn(C)c(C(=O)NCc2ccc(Cl)cc2)c1Cl`, the IC50 is > 85.4 µM (inactive).
Next, `Cc1cc(-n2c(C)cc(C(=O)CSc3ncnc4ccccc34)c2C)no1`: > 85.5 µM (inactive).
Take `Cc1nn(C)c(C)c1NC(=O)COc1ccc(Cl)cc1Br`: the IC50 is > 85.4 µM (inactive).
Turning to `C[n+]1c2n(c3ccccc31)N=C(c1ccc(-c3ccccc3)cc1)CS2`, the IC50 was > 28.5 µM (inactive).
Next, `NC(=O)c1c(-c2ccc(Cl)cc2Cl)csc1NC(=O)Cc1ccccc1`: > 85.4 µM (inactive); `CC(C)(C)c1ccc(/C=N/Nc2ccc(C(=O)O)cc2)cc1`: > 85.4 µM (inactive).
Next, `CCOc1cc(S(=O)(=O)NCc2ccncc2)ccc1Cl`: > 85.4 µM (inactive); `COc1cccc(CN(C)C(=O)c2ccc(OCC(=O)Nc3cccc(C(F)(F)F)c3)c(OC)c2)c1`: > 28.5 µM (inactive).
Take `CCCCn1c2c(c(=N)c3c1CCC3)CCC2`: the IC50 was > 85.4 µM (inactive).
As for `O=C(NC(Nc1nc2ccc([N+](=O)[O-])cc2s1)(C(F)(F)F)C(F)(F)F)c1cccnc1`, the IC50 was > 85.4 µM (inactive).
As for `Cc1cc(C(=O)NC2CCCc3c2cnn3-c2cccc(C)c2C)n(C)n1` (centres undefined), the IC50 is > 85.4 µM (inactive).
With `CCOC(=O)c1cnc(-n2nc(C)cc2C)nc1NC1CCCCC1`, the IC50 was 45.4 µM (inactive).
Next, `Cc1ccc(-c2csc(NC(=O)C3CCN(S(=O)(=O)c4cccs4)CC3)n2)cc1`: > 85.4 µM (inactive).
Next, `COc1ccccc1-c1cc2nc(-c3ccccc3)cc(N3CCN(C(=O)c4ccco4)CC3)n2n1`: 10.3 µM (inactive).
For the compound `c1ccc(C(Cc2nc(-c3ccncc3)no2)c2ccccc2)cc1`, the IC50 was > 85.4 µM (inactive).
For the compound `C[C@H]1C[C@@H](C)C(=O)[C@@H]([C@H](O)CC2CC(=O)NC(=O)C2)C1`, the IC50 is > 85.4 µM (inactive).
Next, `COc1ccc(CN(C)c2ccc(S(=O)(=O)N3CCN(C)CC3)cc2[N+](=O)[O-])cc1OC`: > 85.4 µM (inactive).
Regarding `Cc1cc(S(=O)(=O)NCc2ccncc2)c(C)cc1Br`, the IC50 was > 85.4 µM (inactive).
Next, `CC(=O)Nc1ccccc1OCC(=O)c1cc(C)n(Cc2cccs2)c1C`: > 85.5 µM (inactive); `Cn1nc(CC(=O)Nc2ccc3c(c2)OCCO3)c2ccccc2c1=O`: > 85.4 µM (inactive).
Next, `O=S(=O)(NCC1CCCO1)c1ccc(-c2ccc(S(=O)(=O)NCC3CCCO3)cc2)cc1` (centres undefined): > 85.4 µM (inactive); `CCN1/C(=C/c2ccc3cc(C)ccc3[n+]2CC)Sc2ccccc21`: 22 µM (inactive); `Cc1cc(/C=C2/SC(=S)N(c3cccc(Cl)c3)C2=O)c(C)n1-c1cccnc1`: > 85.4 µM (inactive).
As to `CC1=CC(=Cc2sc3ccccc3[n+]2C)C=C(C)O1`, the IC50 is 84.1 µM (inactive).
On to `Cc1nc2ccccc2n1Cc1ccc(Br)cc1`, for which the IC50 is > 85.3 µM (inactive).
Next, `C[n+]1c2n(c3ccccc31)N=C(c1ccccc1)CS2`: > 85.5 µM (inactive).
As for `Cc1ccc(-c2cc3cccc[n+]3cc2-c2ccc(C)cc2)cc1`, the IC50 was > 28.5 µM (inactive).
Regarding `COc1ccc(OC)c(CCNC(=O)Cn2nc(C)c3c(C)n(-c4ccc(C)cc4)nc3c2=O)c1`, the IC50 was > 28.5 µM (inactive).
In the case of `CCOC(=O)N1CCC(NC(=O)C2CCCN(Cc3nc(-c4ccc(CC)cc4)oc3C)C2)CC1` (centres undefined), the IC50 is 80.1 µM (inactive).
`O=C(CSc1nnnn1C1CC2CCC1C2)Nc1ccnc2ccccc12` (centres undefined): the IC50 is > 85.4 µM (inactive).
Next, `CC1(C)CC(=O)C=C(c2ccc(-c3cnc4ccccc4c3)cc2)C1=O`: 12.5 µM (inactive).
Next, `CCCc1cc(=O)n2nc(N3CCC(C(=O)N4CCN(c5ccc(OC)cc5)CC4)CC3)sc2n1`: > 85.4 µM (inactive); `COc1ccc(NC(=O)C2Cc3c(-c4ccc5c(c4)OCO5)ccnc3O2)cc1OC` (centres undefined): > 85.4 µM (inactive); `CC(=O)Nc1ccc(SCC(=O)c2cc(C)n(Cc3cccs3)c2C)cc1`: > 85.4 µM (inactive).
Consider `Fc1ccc(CN2CCN(c3ncc(Cc4ccccc4)cn3)CC2)c(Cl)c1`, for which the IC50 was > 85.3 µM (inactive).
On to `O=C(Nc1ccc(Oc2ccccc2)cc1)c1csc([C@H]2C[C@H](O)[C@@H](CO)O2)n1`, for which the IC50 was > 85.4 µM (inactive).
As for `O=C(c1cccs1)C1CCN(c2ncnc3sccc23)CC1`, the IC50 was > 85.4 µM (inactive).
Next, `CCN(CC)S(=O)(=O)c1cccc(NC(=O)COC(=O)c2[nH]c(C)c(C(C)=O)c2C)c1`: > 28.5 µM (inactive); `COc1ccc(N2CCN(c3ncnc4c3[nH]c3ccccc34)CC2)cc1`: > 85.4 µM (inactive).
